According to patent publication US8754040B2, “Cyclic peptide compound, method for producing same, anti-infective agent, antibiotic-containing fraction, antibiotic, method for producing antibiotic, antibiotic-producing microorganism, and antibiotic produced by same” (priority 2010, dated 2014):
In brackets after ≈: the same amount, converted by molar mass. Entries after “also recorded” stand apart in the source; their conditions may differ. Like-named read-outs stand apart in the source and are kept apart here. Positions of bridges follow the written chain, without caps; N, C: chain ends. Non-standard residues stand in square brackets, D forms with d. Residues, ends and D or L forms follow the SMILES beside them. *: point of attachment. Hexanoyl(3R-OH,5-Me) = CC(C)C[C@@H](O)CC(=O)*; dNMeF = CN[C@H](Cc1ccccc1)C(=O)O

Key:
Staphylococcus aureus [1] = assay: silkworm Staphylococcus aureus infection model (therapeutic effect); format: in vivo, silkworm (larva of Bombyx mori); conditions: purification stages, Table 2
Text: In the present invention too, a first screening to narrow down effective strains from several tens of thousands of extraordinary large numbers of strains may be done by any method as far as the antibacterial activity can be evaluated with the said method; and thus, for example, by referring to MIC, test bodies showing the antibacterial activity to Staphylococcus aureus in culture supernatant of each strain may be picked up. This is because strains not showing the antibacterial activity at all are not in the scope of examination. Any method capable of evaluating the antibacterial activity may be used; but a method with which a strain recognized to show, with referring to MIC, the antibacterial activity to Staphylococcus aureus in culture supernatant of various test strains is picked up is preferable. […]
Strains recognized to show the therapeutic effect in the silkworm Staphylococcus aureus infection model are further subjected to various separation and purification treatments wherein the therapeutic effect is evaluated in each operation by using the silkworm Staphylococcus aureus infection model. […]

[2] = tested on: Staphylococcus aureus (MSSA1)
Text: (§1) Antibacterial activity of the antibiotic-substance-containing fraction at each fractionation stage from a culture produced from RH2180-5 and that of the antibiotic substance obtained therefrom by separation and purification thereof can be evaluated by MIC. […] For example, it is done with a broth microdilution method based on CLSI (formerly NCCLS: National Committee for Clinical Laboratory Standards).
Antibacterial spectrum of the RH2180-5 Peak 5 Substance to various bacteria including MRSA and VRE was studied. In addition, influence of chemical resistance was also studied. For study of the latter, Staphylococcus aureus and Enterococcus faecalis were selected, wherein measurement of MIC value of each peak substance was made by a broth microdilution method based on CLSI (formerly NCCLS: National Committee for Clinical Laboratory Standards) as to Staphylococcus aureus not showing resistance to a chemical (hereinafter abbreviated as “MSSA 1”) and two kinds of MRSA showing resistance to many chemicals including methicillin (MRSA 3 and MRSA 4; see Table 3 for resistive chemicals) for Staphylococcus aureus; and as to Enterococcus faecalis not showing resistance to a chemical (hereinafter abbreviated as “EF 1”) and showing resistance to vancomycin (hereinafter abbreviated as “VRE”) for Enterococcus faecalis.
Test microorganisms of Staphylococcus aureus and Enterococcus faecalis, the same as Test Example 1, were selected; and measurement of MIC value of each peak substance was made by a broth microdilution method based on CLSI (formerly NCCLS: National Committee for Clinical Laboratory Standards) as to MSSA 1 and EF 1, and MRSA 3, MRSA 4, and VRE, the same as Test Example 1.
Antibacterial spectrum of the foregoing RH2180-5 Peak 5 Substance to various microorganisms including MRSA and VRE was studied. Each MIC value for the case added with 10% blood serum and for the case not added with the same was measured by a broth microdilution method based on CLSI (formerly NCCLS: National Committee for Clinical Laboratory Standards).

Salmonella enterica = tested on: Salmonella enterica
Text: as §1
Antibacterial spectrum of the RH2180-5 Peak 5 Substance to various bacteria including MRSA and VRE was studied. In addition, influence of chemical resistance was also studied. For study of the latter, Staphylococcus aureus and Enterococcus faecalis were selected, wherein measurement of MIC value of each peak substance was made by a broth microdilution method based on CLSI (formerly NCCLS: National Committee for Clinical Laboratory Standards) as to Staphylococcus aureus not showing resistance to a chemical (hereinafter abbreviated as “MSSA 1”) and two kinds of MRSA showing resistance to many chemicals including methicillin (MRSA 3 and MRSA 4; see Table 3 for resistive chemicals) for Staphylococcus aureus; and as to Enterococcus faecalis not showing resistance to a chemical (hereinafter abbreviated as “EF 1”) and showing resistance to vancomycin (hereinafter abbreviated as “VRE”) for Enterococcus faecalis. […]

Listeria monocytogenes = format: cell-based
Streptococcus pyogenes = format: cell-based
Candida tropicalis pK233 = format: cell-based
[3] = tested on: Cryptococcus neoformans H99; format: cell-based
[4] = tested on: Smith strain of Staphylococcus aureus; assay: mouse Staphylococcus aureus infection model (therapeutic effect); format: in vivo, mouse (ICR female)
Protocol: Smith strain of Staphylococcus aureus was suspended in 7% mucin+0.2 mM ferric ammonium citrate, and 6.2×10^6 (20×LD50) thereof was administered into the peritoneal cavity of 5 mice per group (ICR female of four weeks of age). Each drug was injected hypodermically 2 hours after administration of the bacterium by the method shown below.
Similarly, ED50 of vancomycin to the mouse model used this time was studied. […] Here, ED50 values were obtained by the probit method.

[5] = acute toxicity test to a mouse; format: in vivo
Protocol: Further, the RH2180-5 Peak 5 Substance was injected hypodermically to the mouse to study acute toxicity of the RH2180-5 Peak 5 Substance to the mouse by observation one day after the administration.

Staphylococcus aureus [6] = assay: survived cell numbers (CFU) of Staphylococcus aureus after drug addition; format: cell-based; conditions: 25 μg/ml
Protocol: To CA-Mueller Hinton Broth medium were taken 1.8×10^8 Staphylococcus aureus, and then the foregoing RH2180-5 Peak 5 Substance (25 μg/mL), vancomycin (VM, 5 μg/mL), and gentamicin (GM, 2.5 μg/mL) were added thereinto; and then, survived cell numbers after 15 minutes, 30 minutes, 60 minutes, and 120 minutes were obtained as CFU (colony forming unit/mL).

Staphylococcus aureus [7] = assay: bacteriolytic activity, absorbance at 600 nm (OD600); format: cell-based; conditions: concentration five times that of Test Example 1, 37° C., compared with vancomycin and daptomycin, FIG. 11
Protocol: Staphylococcus aureus was diluted in CA-Mueller Hinton Broth medium; and then, the RH2180-5 Peak 5 Substance, vancomycin, and daptomycin were added thereinto with the concentrations thereof being five times as much as those of Test Example 1; and then, the microorganism was cultured at 37° C. By using an absorption spectrometer (manufactured by Shimadzu Corp.), absorbance at 600 nm (OD600) after their addition was followed with passage of time.

In the case of `CC[C@H](C)[C@@H]1NC(=O)[C@@H](Cc2c[nH]c3ccccc23)NC(=O)[C@@H](CCC(N)=O)NC(=O)[C@H](CCC(=O)O)NC(=O)[C@@H](CCCNC(=N)N)NC(=O)[C@H](CC(C)C)NC(=O)[C@@H](Cc2ccccc2)N(C)C(=O)CNC(=O)[C@H](CO)NC(=O)[C@@H](CCCNC(=N)N)NC(=O)[C@@H](NC(=O)C[C@H](O)CC(C)C)[C@@H](C)OC(=O)[C@H]([C@@H](C)O)NC1=O` [Peak P5] ({Hexanoyl(3R-OH,5-Me)}-T[dR]SG[dNMeF]L[dR]E[dQ][dW]IT; ester 1-C), the ED50 (Staphylococcus aureus [1]) is reported as 0.3 μg/g-larva, the MIC ([2]; Table 3, Staphylococcus aureus (MSSA1), resistance-showing chemicals: Non) is reported as 5 µg/mL (≈ 3.09 µM) and the MIC ([2]; Table 4, MSSA1) is reported as 6.3 µg/mL (≈ 3.89 µM). For the same molecule, the MIC ([2]; Table 6, with 10% serum, Methicillin susceptible S. aureus MSSA1 (clinical isolate)) was 1.5 µg/mL (≈ 0.927 µM), the MIC ([2]; Table 6, without serum, Methicillin susceptible S. aureus MSSA1 (clinical isolate)) was 3.1 µg/mL (≈ 1.92 µM) and the MIC (Salmonella enterica; Table 3, Salmonella enteria) was >100 µg/mL. The MIC (Salmonella enterica; Table 6, without serum, Salmonella enterica) was >100 µg/mL, the MIC (Listeria monocytogenes) was 6.3 µg/mL (≈ 3.89 µM) and the MIC (Streptococcus pyogenes) was 50 µg/mL (≈ 30.9 µM). The MIC (Candida tropicalis pK233) was >100 µg/mL, the MIC [3] was >100 µg/mL and the “survival in the mouse Staphylococcus aureus infection model” value ([4]; 25 mg/kg hypodermically, no survival with PBS administration, 5 mice per group) was “survival of totality of mice”. The “ED50 value relative to vancomycin” value ([4]; mouse Staphylococcus aureus infection model) was “about one third”, the ED50 ([4]; mouse, S. aureus Smith 6.2 × 10^6 (20 × LD50) intraperitoneal, drug injected hypodermically 2 hours later, survival one day after, probit method) was 0.6 mg/kg and the “acute toxicity to the mouse” value ([5]; injected hypodermically, up to 50 mg/kg, observation one day after the administration, listed as RH2180-5 Peak 5 Substance) was “mouse was not killed; also recorded: no toxicity observed”. For the same molecule, the “highest dose without toxicity (50 mg/kg) relative to ED50” value ([5]; mouse, hypodermic) was 80 folds, the “CFU/ml of S. aureus” value (Staphylococcus aureus [6]; 15 minutes, start 1.8 × 10^8) was <1 × 10^4 CFU/ml and the “CFU/ml of S. aureus” value (Staphylococcus aureus [6]; 30 minutes) was <1 × 10^4 CFU/ml. For the same molecule, the “CFU/ml of S. aureus” value (Staphylococcus aureus [6]; 60 minutes) was <1 × 10^4 CFU/ml, the “CFU/ml of S. aureus” value (Staphylococcus aureus [6]; 120 minutes) was <1 × 10^4 CFU/ml and the “bacteriolytic activity (decrease of absorbance OD600)” value (Staphylococcus aureus [7]) was “shows the bacteriolytic activity”. The Solubility to solvents (chloroform) was “Insoluble” and the Solubility to solvents (water, ethanol, methanol, and acetonitrile) was “Soluble”.
